Biological target: MALT1 (Homo sapiens (Human), UniProt Q9UDY8)
Test: MALT1 enzymatic activity inhibition (fluorescence, Ac-LRSR-AMC substrate)
Format: biochemical
Settings: recombinant MALT1 1.5 ng/μl, Ac-LRSR-AMC 1 μM
Method in brief: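 Recombinant human MALT1 (1.5 ng/μl final) preincubated 10 min at rt with compounds in 50 mM HEPES pH 7.2-7.4, 100 mM NaCl, 900 mM sodium citrate, 10 mM DTT; 1 μM Ac-LRSR-AMC then added. AMC fluorescence read at start and after 30 min 37 °C plus 30 min rt; difference gives signal, % inhibition fitted to IC50.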

Chain of MALT1 (Q9UDY8 whole entry): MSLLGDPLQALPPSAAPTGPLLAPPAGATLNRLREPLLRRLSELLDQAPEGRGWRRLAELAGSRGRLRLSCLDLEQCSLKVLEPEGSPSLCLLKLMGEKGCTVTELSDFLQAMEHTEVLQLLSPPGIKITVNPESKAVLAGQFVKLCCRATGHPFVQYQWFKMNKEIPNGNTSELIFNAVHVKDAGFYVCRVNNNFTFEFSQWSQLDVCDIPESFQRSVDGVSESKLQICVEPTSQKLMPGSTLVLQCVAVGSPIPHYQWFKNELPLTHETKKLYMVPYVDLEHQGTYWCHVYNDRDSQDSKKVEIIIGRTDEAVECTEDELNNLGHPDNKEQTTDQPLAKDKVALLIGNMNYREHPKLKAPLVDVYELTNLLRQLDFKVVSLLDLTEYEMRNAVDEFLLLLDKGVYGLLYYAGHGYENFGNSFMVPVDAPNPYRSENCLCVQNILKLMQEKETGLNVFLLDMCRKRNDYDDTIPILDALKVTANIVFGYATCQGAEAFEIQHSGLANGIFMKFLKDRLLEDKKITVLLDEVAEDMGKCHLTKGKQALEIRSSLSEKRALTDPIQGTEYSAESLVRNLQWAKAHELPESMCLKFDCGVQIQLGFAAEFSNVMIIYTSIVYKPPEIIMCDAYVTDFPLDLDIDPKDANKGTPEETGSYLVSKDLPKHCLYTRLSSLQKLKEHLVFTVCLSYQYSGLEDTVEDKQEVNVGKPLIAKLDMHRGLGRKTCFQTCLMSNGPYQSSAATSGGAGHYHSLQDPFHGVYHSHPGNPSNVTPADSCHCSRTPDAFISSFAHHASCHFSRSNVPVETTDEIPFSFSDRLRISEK

SMILES | EC50 [µM]
CC(C)c1c(NC(=O)Nc2cnc(-c3noc(CCCCC(=O)N4CCN(c5ccc6c(c5)CN(C5CCC(=O)NC5=O)C6=O)CC4)n3)c(Cl)c2)cnc2ccnn12 (centres unmarked) [Compound 139, 1-[5-chloro-6-[5-[5-[4-[2-(2,6-dioxo-3-piperidyl)-1-oxo-isoindolin-5-yl]piperazin-1-yl]-5-oxo-pentyl]-1,2,4-oxadiazol-3-yl]-3-pyridyl]-3-(7-isopropylpyrazolo[1,5-a]pyrimidin-6-yl)urea] | ≤ 0.2
O=C(CCOCCN1CCN(c2ccc3c(c2)CN(C2CCC(=O)NC2=O)C3=O)CC1)NCCNC(=O)[C@@H]1C[C@@H](O)CN1C(=O)Nc1cnc2ccnn2c1C1CCCC1 (stereo partly drawn) [Compound 46, (2S,4R)-N1-(7-cyclopentylpyrazolo[1,5-a]pyrimidin-6-yl)-N2-[2-[3-[2-[4-[2-(2,6-dioxo-3-piperidyl)-1-oxo-isoindolin-5-yl]piperazin-1-yl]ethoxy]propanoylamino]ethyl]-4-hydroxy-pyrrolidine-1,2-dicarboxamide] | > 5
Cc1cc(NC(=O)Nc2cnc3ccnn3c2C2CCCC2)cnc1-c1noc(COCCCCN2CCN(c3ccc4c(c3)CN(C3CCC(=O)NC3=O)C4=O)CC2)n1 (centres unmarked) [Compound 11, 1-(7-cyclopentylpyrazolo[1,5-a]pyrimidin-6-yl)-3-[6-[5-[4-[4-[2-(2,6-dioxo-3-piperidyl)-1-oxo-isoindolin-5-yl]piperazin-1-yl]butoxymethyl]-1,2,4-oxadiazol-3-yl]-5-methyl-3-pyridyl]urea] | 0.2 to 0.5
Cc1cc(NC(=O)Nc2cnc3c(Cl)cnn3c2C2CCCC2)cnc1-c1noc(CCCN2CCN(c3ccc4c(c3)CN(C3CCC(=O)NC3=O)C4=O)CC2)n1 (centres unmarked) [Compound 19, 1-(3-chloro-7-cyclopentyl-pyrazolo[1,5-a]pyrimidin-6-yl)-3-[6-[5-[3-[4-[2-(2,6-dioxo-3-piperidyl)-1-oxo-isoindolin-5-yl]piperazin-1-yl]propyl]-1,2,4-oxadiazol-3-yl]-5-methyl-3-pyridyl]urea] | 1 to 5
Cc1cc(NC(=O)Nc2cnc3ccnn3c2C2CCC2)cnc1-c1noc(CCCCCCN2CCN(c3ccc4c(c3)CN(C3CCC(=O)NC3=O)C4=O)CC2)n1 (centres unmarked) [Compound 115, 1-(7-cyclobutylpyrazolo[1,5-a]pyrimidin-6-yl)-3-[6-[5-[6-[4-[2-(2,6-dioxo-3-piperidyl)-1-oxo-isoindolin-5-yl]piperazin-1-yl]hexyl]-1,2,4-oxadiazol-3-yl]-5-methyl-3-pyridyl]urea] | ≤ 0.2
Cc1cc(NC(=O)Nc2cnc3ccnn3c2C2CCCC2)cnc1-c1noc(CCCCCC(=O)N2CCN(c3ccc4c(c3)CN(C3CCC(=O)N(COC(=O)C(C)(C)C)C3=O)C4=O)CC2)n1 (centres unmarked) [Compound 102, [3-[5-[4-[6-[3-[5-[(7-cyclopentylpyrazolo[1,5-a]pyrimidin-6-yl)carbamoylamino]-3-methyl-2-pyridyl]-1,2,4-oxadiazol-5-yl]hexanoyl]piperazin-1-yl]-1-oxo-isoindolin-2-yl]-2,6-dioxo-1-piperidyl]methyl 2,2-dimethylpropanoate] | ≤ 0.2
O=C(CCOCCN1CCN(c2ccc3c(c2)CN(C2CCC(=O)NC2=O)C3=O)CC1)NCCOc1ncc(Cl)cc1NC(=O)Nc1cnc2ccnn2c1C1CCOCC1 (centres unmarked) [Compound 42, N-[2-[[5-chloro-3-[(7-tetrahydropyran-4-ylpyrazolo[1,5-a]pyrimidin-6-yl)carbamoylamino]-2-pyridyl]oxy]ethyl]-3-[2-[4-[2-(2,6-dioxo-3-piperidyl)-1-oxo-isoindolin-5-yl]piperazin-1-yl]ethoxy]propanamide] | 0.5 to 1
Cc1cc2ncc(NC(=O)Nc3cnc(-c4noc(CCCCC(=O)N5CCN(c6ccc7c(c6)CN(C6CCC(=O)NC6=O)C7=O)CC5)n4)c(C)c3)c(C3CCCC3)n2n1 (centres unmarked) [Compound 59, 1-(7-cyclopentyl-2-methyl-pyrazolo[1,5-a]pyrimidin-6-yl)-3-[6-[5-[5-[4-[2-(2,6-dioxo-3-piperidyl)-1-oxo-isoindolin-5-yl]piperazin-1-yl]-5-oxo-pentyl]-1,2,4-oxadiazol-3-yl]-5-methyl-3-pyridyl]urea] | ≤ 0.2
Cc1cc(NC(=O)Nc2cnc3ccnn3c2C(C)(C)C)cnc1-c1noc(CCCCCN2CCN(c3ccc4c(c3)CN(C3CCC(=O)NC3=O)C4=O)CC2)n1 (centres unmarked) [Compound 150, 1-(7-tert-butylpyrazolo[1,5-a]pyrimidin-6-yl)-3-[6-[5-[5-[4-[2-(2,6-dioxo-3-piperidyl)-1-oxo-isoindolin-5-yl]piperazin-1-yl]pentyl]-1,2,4-oxadiazol-3-yl]-5-methyl-3-pyridyl]urea] | 1 to 5
O=C(CCOCCOCCN1CCN(c2ccc3c(c2)CN(C2CCC(=O)NC2=O)C3=O)CC1)NCCNC(=O)C1CCCN1C(=O)Nc1cnc2ccnn2c1C1CCCC1 (centres unmarked) [Compound 48, N1-(7-cyclopentylpyrazolo[1,5-a]pyrimidin-6-yl)-N2-[2-[3-[2-[2-[4-[2-(2,6-dioxo-3-piperidyl)-1-oxo-isoindolin-5-yl]piperazin-1-yl]ethoxy]ethoxy]propanoylamino]ethyl]pyrrolidine-1,2-dicarboxamide] | > 5
Cc1cc(NC(=O)Nc2cnc3c(Cl)cnn3c2C2CCCC2)cnc1-c1noc(CCCN2CCN(c3cc4c(cc3F)C(=O)N(C3CCC(=O)NC3=O)C4=O)CC2)n1 (centres unmarked) [Compound 24, 1-(3-chloro-7-cyclopentyl-pyrazolo[1,5-a]pyrimidin-6-yl)-3-[6-[5-[3-[4-[2-(2,6-dioxo-3-piperidyl)-6-fluoro-1,3-dioxo-isoindolin-5-yl]piperazin-1-yl]propyl]-1,2,4-oxadiazol-3-yl]-5-methyl-3-pyridyl]urea] | 1 to 5
O=C(CCOCCOCCN1CCN(c2ccc3c(c2)CN(C2CCC(=O)NC2=O)C3=O)CC1)NCCOc1ncc(Cl)cc1NC(=O)Nc1cnc2ccnn2c1C1CCOC1 (centres unmarked) [Compound 40, N-[2-[[5-chloro-3-[(7-tetrahydrofuran-3-ylpyrazolo[1,5-a]pyrimidin-6-yl)carbamoylamino]-2-pyridyl]oxy]ethyl]-3-[2-[2-[4-[2-(2,6-dioxo-3-piperidyl)-1-oxo-isoindolin-5-yl]piperazin-1-yl]ethoxy]ethoxy]propanamide] | 0.5 to 1
Cc1cc(NC(=O)Nc2cnc3ccnn3c2C2CCCCC2)cnc1-c1noc(CCCCC(=O)Nc2ccc3c(c2)CN(C2CCC(=O)NC2=O)C3=O)n1 (centres unmarked) [Compound 125, 5-[3-[5-[(7-cyclohexylpyrazolo[1,5-a]pyrimidin-6-yl)carbamoylamino]-3-methyl-2-pyridyl]-1,2,4-oxadiazol-5-yl]-N-[2-(2,6-dioxo-3-piperidyl)-1-oxo-isoindolin-5-yl]pentanamide] | 0.5 to 1
O=C(CCOCCN1CCN(c2ccc3c(c2)CN(C2CCC(=O)NC2=O)C3=O)CC1)NCCOc1ncc(Cl)cc1NC(=O)Nc1cnc2ccnn2c1C1CCCO1 (centres unmarked) [Compound 36, N-[2-[[5-chloro-3-[(7-tetrahydrofuran-2-ylpyrazolo[1,5-a]pyrimidin-6-yl)carbamoylamino]-2-pyridyl]oxy]ethyl]-3-[2-[4-[2-(2,6-dioxo-3-piperidyl)-1-oxo-isoindolin-5-yl]piperazin-1-yl]ethoxy]propanamide] | 0.5 to 1
O=C1CCC(N2Cc3cc(N4CCN(C(=O)CCCCCc5nc(-c6ncc(NC(=O)Nc7cnc8ccnn8c7C7CC7)cc6Cl)no5)CC4)ccc3C2=O)C(=O)N1 (centres unmarked) [Compound 158, 1-[5-chloro-6-[5-[6-[4-[2-(2,6-dioxo-3-piperidyl)-1-oxo-isoindolin-5-yl]piperazin-1-yl]-6-oxo-hexyl]-1,2,4-oxadiazol-3-yl]-3-pyridyl]-3-(7-cyclopropylpyrazolo[1,5-a]pyrimidin-6-yl)urea] | ≤ 0.2
Cc1nn(CCCCC(=O)N2CCN(c3ccc4c(c3)CN(C3CCC(=O)NC3=O)C4=O)CC2)cc1NC(=O)Nc1cnc2ccnn2c1C(C)C (centres unmarked) [Compound 164, 1-[1-[5-[4-[2-(2,6-dioxo-3-piperidyl)-1-oxo-isoindolin-5-yl]piperazin-1-yl]-5-oxo-pentyl]-3-methyl-pyrazol-4-yl]-3-(7-isopropylpyrazolo[1,5-a]pyrimidin-6-yl)urea] | > 5
CC(C)c1c(NC(=O)Nc2cnc(-c3noc(CCCCC(=O)N4CCN(c5ccc6c(c5)CN(C5CCC(=O)N(COC(=O)C(C)(C)C)C5=O)C6=O)CC4)n3)c(Cl)c2)cnc2ccnn12 (centres unmarked) [Compound 138, [3-[5-[4-[5-[3-[3-chloro-5-[(7-isopropylpyrazolo[1,5-a]pyrimidin-6-yl)carbamoylamino]-2-pyridyl]-1,2,4-oxadiazol-5-yl]pentanoyl]piperazin-1-yl]-1-oxo-isoindolin-2-yl]-2,6-dioxo-1-piperidyl]methyl 2,2-dimethylpropanoate] | ≤ 0.2
CCCCOP(=O)(OCCCC)OCN1C(=O)CCC(N2Cc3cc(N4CCN(C(=O)CCCCCc5nc(-c6ncc(NC(=O)Nc7cnc8ccnn8c7C(C)C)cc6C)no5)CC4)ccc3C2=O)C1=O (centres unmarked) [Compound 148, dibutyl [3-[5-[4-[6-[3-[5-[(7-isopropylpyrazolo[1,5-a]pyrimidin-6-yl)carbamoylamino]-3-methyl-2-pyridyl]-1,2,4-oxadiazol-5-yl]hexanoyl]piperazin-1-yl]-1-oxo-isoindolin-2-yl]-2,6-dioxo-1-piperidyl]methyl phosphate] | 0.5 to 1
Cc1cc(NC(=O)Nc2cnc3ccnn3c2C(C)(C)C)cnc1-c1noc(CCCCC(=O)N2CCN(c3ccc4c(c3)CN(C3CCC(=O)NC3=O)C4=O)CC2)n1 (centres unmarked) [Compound 127, 1-(7-tert-butylpyrazolo[1,5-a]pyrimidin-6-yl)-3-[6-[5-[5-[4-[2-(2,6-dioxo-3-piperidyl)-1-oxo-isoindolin-5-yl]piperazin-1-yl]-5-oxo-pentyl]-1,2,4-oxadiazol-3-yl]-5-methyl-3-pyridyl]urea] | 1 to 5
COc1cc(-c2c(NC(=O)Nc3cnc(NCCOCCOCCC(=O)N4CCN(c5ccc6c(c5)CN(C5CCC(=O)NC5=O)C6=O)CC4)c(C)c3)cnc3ccnn23)cc(OC)c1OC (centres unmarked) [Compound 27, 1-[6-[2-[2-[3-[4-[2-(2,6-dioxo-3-piperidyl)-1-oxo-isoindolin-5-yl]piperazin-1-yl]-3-oxo-propoxy]ethoxy]ethylamino]-5-methyl-3-pyridyl]-3-[7-(3,4,5-trimethoxyphenyl)pyrazolo[1,5-a]pyrimidin-6-yl]urea] | > 5
